According to patent US20170152285A1, “EXTRACTING METHOD OF KUGUACIN, PHARMACEUTICAL COMPOSITION COMPRISING THE KUGUACIN AND USE THEREOF” (priority 2015, published 2017):

Legend:
IL-8 = assay: Anti-inflammatory activity assay, IL-8 ELISA, THP-1 co-cultured with P. gingivalis; format: cell-based, Human; conditions: for inhibiting the expression of IL-8 induced by P. gingivalis: 1 μM to 5 μM, dose-dependent
Protocol: (§1) P. gingivalis (ATCC 33277/BCRC 14417) purchased from Bioresource Collection and Research Center of Food Industry Research and Development Institute in Hsinchu. P. gingivalis was incubated with TSB medium in an anaerobic incubator at 37° C. in an atmosphere of 86% of N2, 10% of CO2 and 4% of H2. The TSB medium comprises 15 g of Tryptic Soy broth (Becton, Dicksinson and company, U.S.A.), 2.5 g of yeast extract, 0.5 mL of Hemin and 0.1 mL of Vitamin K dissolved in 500 mL of deionized H2O.
(§2) THP-1 cell line (2×10^6 cells/mL) cultured by the method described in Example 3 was placed into a 96-well plate, and then 100 μL of RPMI medium without P. gingivalis was added or 0.1% dimethyl sulfoxide (DMSO) containing P. gingivalis with its multiplicity of infection (MOI) of 10 was added as negative controls. Different concentrations of samples from Examples 1 and 2 were added or luteolin (10 μM) was added as positive control. After co-culturing in an incubator at 37° C. in 5% of CO2 for 24 hours, the supernatants were collected. Then, the levels of IL-6 and IL-8 were analyzed by commercial ELISA kits for IL-6 and IL-8 (Invitrogen).
(§3) The term “MOI” is multiplicity of infection which means the number of the bacteria infecting each cell (the number of bacteria/the number of cells). For example, MOI=1 refers to every cell was infected by one bacterial colony.

IL-6 [1] = assay: Anti-inflammatory activity assay, IL-6 ELISA, THP-1 co-cultured with P. gingivalis; format: cell-based, Human; conditions: for inhibiting the expression of IL-6 induced by P. gingivalis: 1 μM to 5 μM, dose-dependent
Protocol: as §1, §2, §3

p-ERK, p-JNK and p-p38 = assay: Western blot of phosphorylated MAPK proteins in THP-1 induced by P. gingivalis; format: cell-based, Human; conditions: 1 μM to 5 μM, induced by P. gingivalis for 30 mins, dose-dependent
Protocol: (§4) To analyze the effect of the M. charantia extract on phosphorylation of MAPK proteins, THP-1 cell line cultured by the method described in Example 3 (2×10^6 cells/mL) was inoculated in 6-cm petridishes. Every 200 μL of cell culture was added 800 μL of fresh media containing DMSO with P. gingivalis (MOI=10), different concentrations of samples from Examples 1 and 2 or luteolin ([…]) and then co-cultured in a incubator at 37° C. in 5% of CO2 for 30 mins. Next, the cells were collected and centrifuged to remove the supernatant. After adding phosphate buffer solution (PBS), the collected cells were shook and washed repeatedly for 3 times. Then 100 μL of 1× lysis buffer was added in. The mixture was centrifuged at 12,000 rpm and 4° C. for 15 mins, and the supernatant was collected. The protein was quantified to the identical concentration. After protein electrophoresis was conducted, Western blot was conducted to analyze the level of phosphorylated ERK, JNK and p38 (i.e. p-ERK, p-JNK and p-p38).

IL-6 [2] = assay: Periodontitis mouse model, IL-6 mRNA in gum tissue; format: in vivo, C57BL/6 mice; conditions: 5 μg injected into gum tissue, day 14
Protocol: (§5) To assess the effect of kuguacin on anti-inflammation in vivo, 6-week old C57BL/6 male mice were used in the present embodiment. The mice were purchased from Laboratory Animal Center of National Taiwan University, and fed with commercial chow diet and drinking water. After free access of food for 7 days, the mice were grouped for experiments, five animals for each group.
(§6) The concentration of P. gingivalis was adjusted to 1×10^9 CFU/mL by steriled PBS, then centrifuged at 10,000 rpm for 5 min. After removing the supernatant, the pellet was heated in water bath at 80° C. for 30 mins.
(§7) According to the method provided in the reference by Molon et al. to establish animal experiment model. Heat-killed P. gingivalis was injected into the gum tissue of C57BL/6 mice to cause inflammation. The mice were anesthetized by ethylether. Samples and bacteria solution were withdrawn using 0.3-mL insulin syringe needle. 10 μL of bacteria and samples were injected into the gum tissue of the mice. If blisters appeared, the injection was successful. […]
(§8) After sacrificing the mice at the 14th day of the experiment, the gums of lower jaw of the mice were sampled and the gene expressions of COX-2, IL-6 and TNF-α therein were analyzed.

COX-2 = assay: Periodontitis mouse model, COX-2 mRNA in gum tissue; format: in vivo, C57BL/6 mice; conditions: 5 μg injected into gum tissue, day 14
Protocol: as §5, §6, §7, §8

TNF-α = assay: Periodontitis mouse model, TNF-α mRNA in gum tissue; format: in vivo, C57BL/6 mice; conditions: 5 μg injected into gum tissue, day 14
Protocol: as §5, §6, §7, §8

iNOS = assay: Periodontitis mouse model, iNOS mRNA in gum tissue; format: in vivo, C57BL/6 mice; conditions: injected into gum tissue with P. gingivalis, day 14
ERK = assay: Western blot of phosphorylated ERK in THP-1 induced by P. gingivalis; format: cell-based, Human; conditions: 10 μM and 20 μM, induced by P. gingivalis for 30 mins
Protocol: as §4

Row | SMILES | inhibiting the expression of IL-8 induced by P. gingivalis (IL-8) | inhibiting the expression of IL-6 induced by P. gingivalis (IL-6 [1]) | phosphorylation of the signal transduction proteins (p-ERK, p-JNK, p-p38) in THP-1 cells (p-ERK, p-JNK and p-p38) | mRNA expression of IL-6 in gum tissue, compared to group induced by P. gingivalis as 100% (IL-6 [2]) [%] | mRNA expression of COX-2 in gum tissue, compared to group induced by P. gingivalis as 100% (COX-2) [%] | mRNA expression of TNF-α in gum tissue, compared to group induced by P. gingivalis as 100% (TNF-α) [%] | mRNA expression of iNOS in gum tissue (iNOS) | inhibiting the expression of IL-8 by THP-1 cell line (IL-8; 5 μM to 20 μM) | inhibiting the expression of IL-6 by THP-1 cell line (IL-6 [1]; 5 μM to 20 μM) | inhibiting the phosphorylation of ERK (ERK)
1 | C[C@H](C/C=C/C(C)(C)O)[C@H]1CC[C@@]2(C)[C@@H]3[C@@H](O)C=C4[C@@H](CC[C@H](O)C4(C)C)[C@]3(C=O)CC[C@]12C [fraction 5212, 3,7,25-trihydroxycucurbita-5,23-dien-19-al] | effective on inhibiting | effective on inhibiting | reduced | 67 | 49 | 67 | increase | – | – | –
2 | CC(CC=CC(C)(C)O)C1CCC2(C)C3C=CC45OC(O)C3(CCC12C)C4CCC(O)C5(C)C (centres unmarked) [fraction 5211, 5,19-epoxycucurbita-6,23-diene-3,19,25-triol] | effective on inhibiting | effective on inhibiting | reduced | 34 | 31 | 40 | increase | – | – | –
3 | C=C(C)/C=C/C[C@@H](C)[C@H]1CC[C@@]2(C)[C@@H]3C=C[C@@]45O[C@@H](O)[C@]3(CC[C@]12C)[C@@H]4CC[C@H](O)C5(C)C [fraction 532, 5β,19-epoxycucurbita-6,23(E),25(26)-triene-3β,19(R)-diol] | – | – | – | – | – | – | – | effective on inhibiting | effective on inhibiting | effective in inhibiting
